According to patent US7985434B2, “Compositions of atomized or lyophilized maca (Lepidium meyenii) extracts and atomized or lyophilized yacon (Smallanthus sanchifolius) extracts as adjuvants in the treatment of different conditions” (Universidad Peruana Cayetano Heredia, priority 2009, dated 2011):

Legend:
spermatozoids [1] = assay: Count or daily production of spermatozoids (synthetic macamide); assay type: in vivo; details: inventors' laboratory (Gonzales, 2006 page 104)
Excerpt: (§1) In the inventors' laboratory, the effect of a synthetic macamide, N-benzyl-5-oxo-6E, 8E-octadecadienamide, has been tested, which had no effect in the count or daily production of spermatozoids (Gonzales, 2006 page 104). […] Most of the biological activity is rather found in the more polar fractions (Gonzales, 2006; 2006a; Valerio & Gonzales, 2005).

spermatozoids [2] = assay: Number of spermatozoids in mice; assay type: in vivo
Excerpt: as §1

Bacillus subtilis = details: between six sesquiterpene lactones tested; cited from earlier work

With `CCCCCCCCC/C=C/C=C/C(=O)CCCC(=O)NCc1ccccc1` [N-benzyl-5-oxo-6E, 8E-octadecadienamide] the “effect in the count or daily production of spermatozoids” value (spermatozoids [1]) was “no effect”.
In the case of `CCCCCCCCCCCCCCCC(=O)NCc1ccccc1` [N-benzyl-hexadecanamide], the “effect on the number of spermatozoids” value (spermatozoids [2]) is reported as “not been observed”.
For Fluctuanine, the antibacterial activity (Bacillus subtilis) is given as “greatest antibacterial activity”.
